Test results taken from the supplement of paper PMC11451515.

Tests used:
Experiment in all cases: AUC of viability dose-response curve (% viability x log10 dose units); higher = less sensitive
Conditions in all cases: 48 h
SEM cells = system: SEM cells
Summary of the method: (§1)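 In 1536-well plates, leukemia cells adapted to each medium (500 or 1000 cells/well) were exposed for 48 h at 37°C to library compounds in DMSO across 11 threefold doses, 47 μM down to 0.79 nM. Viability was read by CellTiter-Glo One luminescence and normalised per plate to DMSO and cell-free wells. A four-parameter log-logistic fit over log10 doses was integrated by trapezoidal rule. This yielded the area under the curve, with over-full-viability curves scaled and quality-control failures dropped.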

P12-Ichikawa = system: P12-Ichikawa
Summary of the method: as §1

NOMO1 = system: NOMO1
Summary of the method: as §1

[1] = RPMI 5 mM glucose + 10% dialyzed FBS

SMILES	AUC of viability dose-response curve (SEM cells; HPLM + 10% dialyzed FBS)	AUC of viability dose-response curve (SEM cells; RPMI 5 mM glucose + 10% FBS)	AUC of viability dose-response curve (SEM cells; [1])	AUC of viability dose-response curve (P12-Ichikawa; HPLM + 10% dialyzed FBS)	AUC of viability dose-response curve (P12-Ichikawa; RPMI 5 mM glucose + 10% FBS)	AUC of viability dose-response curve (P12-Ichikawa; [1])	AUC of viability dose-response curve (NOMO1; HPLM + 10% dialyzed FBS)	AUC of viability dose-response curve (NOMO1; RPMI 5 mM glucose + 10% FBS)	AUC of viability dose-response curve (NOMO1; [1])
C[C@@H]1C[C@H]2[C@@H]3\C=C(C)/C4=C/C5=C(C[C@]4(C)[C@H]3[C@@H](O)C[C@]2(C)[C@@]1(O)C(=O)COC(C)=O)C=N[N]5C6=CC=CC=C6	304	277	258	323	264	251	442	411	449
O=C1CSC(=O)N1C(CCc1ccncc1)COc1ccc(-c2cccc([N+](=O)[O-])c2)cc1 (stereo not given)	427	433	467	447	394	436	444	446	454
CC(=O)N1CCN(c2ccc(OCc3nn(C)c(C)c3-c3cccc4c(CCCOc5cc(C)c(Cl)c(C)c5)c(C(=O)O)n(Cc5cccnc5)c34)cc2)CC1	453	413	441	461	459	467	469	471	457
C[C@]\1(CCS\C(=N1)N)C2=CC(=C(F)C=C2F)C3=CN=CN=C3	441	390	429	411	420	435	378	359	383
Clc1ccc(C2(c3ccc(-c4cn[nH]c4)cc3)CCNCC2)cc1	384	445	388	419	369	390	427	389	395
CC(C)(C)OC(=O)CN(Cc1ccc(Cl)cc1)Cc1ccc([N+](=O)[O-])s1	449	454	436	456	443	429	441	436	464
NC(=O)c1ccc(-c2nc(-c3ccc4c(c3)OCCO4)c(-c3ccccn3)[nH]2)cc1	451	462	416	470	459	473	449	460	473
CCNC(=O)C[C@@H]1\N=C(C2=CC=C(Cl)C=C2)/C3=C(C=CC(=C3)OC)[N]4C(=NN=C14)C	311	299	303	395	396	388	373	392	388
CCCCN(CCCC)CCC(O)c1cc2c(Cl)cc(Cl)cc2c2cc(C(F)(F)F)ccc12 (stereo not given)	442	408	415	466	459	452	453	459	471
Cc1ccc(NC(=O)c2ccc(CN3CCN(C)CC3)cc2)cc1Nc1nccc(-c2cccnc2)n1	465	468	467	460	470	477	477	459	454
CN[C@H](CC(C)C)C(=O)N[C@H]1C(=O)N[C@@H](CC(N)=O)C(=O)N[C@H]2C(=O)N[C@H]3C(=O)N[C@H](C(=O)N[C@H](C(=O)O)c4cc(O)cc(O)c4-c4cc3ccc4O)[C@H](O)c3ccc(c(Cl)c3)Oc3cc2cc(c3O[C@@H]2O[C@H](CO)[C@@H](O)[C@H](O)[C@H]2O[C@H]2C[C@](C)(N)[C@H](O)[C@H](C)O2)Oc2ccc(cc2Cl)[C@H]1O	463	458	473	457	462	454	439	468	475
C[C@@H]1CC[C@@]2(OC1)O[C@H]3C[C@H]4[C@@H]5C/C=C6/C[C@H](CC[C@]6(C)[C@H]5CC[C@]4(C)[C@H]3[C@@H]2C)O[C@@H]7O[C@H](CO)[C@@H](O[C@@H]8O[C@@H](C)[C@H](O)[C@@H](O)[C@H]8O)[C@H](O)[C@H]7O[C@@H]9O[C@@H](C)[C@H](O)[C@@H](O)[C@H]9O	440	431	429	450	452	445	452	453	449
Nc1nc(-c2nn(Cc3ccccc3F)c3ncccc23)nc(N)c1N1CCOCC1	462	458	467	469	463	473	461	458	467
COc1cc2c(Nc3ccc(NC(=O)c4ccccc4)cc3)ncnc2cc1OCCCN1CCOCC1	396	389	385	383	390	386	456	417	425
CO/N=C(/C(=O)N[C@@H]1C(=O)N2C(C(=O)O)=C(Cn3ccc(=N)n3CCO)CS[C@H]12)c1csc(N)n1	413	461	467	460	452	463	421	446	459
